Measurements taken from ChEMBL document CHEMBL6182865, “Discovery of potent free fatty acid receptor 1 full agonists with a novel scaffold bearing conjugated double bond linker” (Bioorg Med Chem, 2025).
The source made the active and inactive calls. The rule behind the calls is not given here.

Experiments:
[1] = molecular target: T1, Free fatty acid receptor 1 (Homo sapiens, UniProt O14842); assay: Agonist activity at GPR40 (unknown origin) expressed in HEK293 cells assessed as intracellular inositol phosphate accumulation incubated for 30 mins by IP-one HTRF analysis; assay type: functional, cell-based
T1 sequence (O14842 whole entry): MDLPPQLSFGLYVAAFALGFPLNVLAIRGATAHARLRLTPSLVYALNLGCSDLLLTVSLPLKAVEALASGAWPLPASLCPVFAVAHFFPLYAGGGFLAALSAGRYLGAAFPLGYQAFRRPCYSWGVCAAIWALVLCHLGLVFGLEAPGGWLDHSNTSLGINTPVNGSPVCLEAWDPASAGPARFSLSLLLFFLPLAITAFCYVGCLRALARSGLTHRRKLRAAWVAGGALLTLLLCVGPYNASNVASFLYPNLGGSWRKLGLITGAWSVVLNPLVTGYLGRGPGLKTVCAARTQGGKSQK

[2] = molecular target: T1, Free fatty acid receptor 1; assay: Agonist activity at GPR40 (unknown origin) expressed in HEK293 cells assessed as intracellular cAMP level incubated for 30 mins by LANCE Ultra cAMP kit based multiplate reader analysis; assay type: functional, cell-based
[3] = molecular target: T1, Free fatty acid receptor 1; assay: Partial agonist activity at GPR40 (unknown origin) expressed in HEK293 cells assessed as intracellular inositol phosphate accumulation by measuring maximum efficacy incubated for 30 mins by IP-one HTRF analysis relative to control; assay type: functional, cell-based; conditions: filed as partial agonist
Mus musculus [4] = assay: Hypoglycemic effect in male C57BL/6 mouse assessed as reduction in blood glucose level at 30 mg/kg, po preadministered with compound for 60 mins followed by glucose administration at 0 hrs and measured up to 90 mins by oral glucose tolerance test; assay type: functional, organism-based; conditions: time <= 150.0 min
Mus musculus [5] = assay: Hypoglycemic effect in male C57BL/6 mouse assessed as reduction in blood glucose level at 10 mg/kg, po preadministered with compound for 60 mins followed by glucose administration at 0 hrs and measured up to 90 mins by oral glucose tolerance test; assay type: functional, organism-based; conditions: time <= […] min
Mus musculus [6] = assay: Hypoglycemic effect in male po dosed C57BL/6 mouse preadministered with compound for 60 mins followed by glucose administration at 0 hrs and measured up to 90 mins by oral glucose tolerance test; assay type: functional, organism-based; conditions: dose 3-30 mg/kg, time <= 150.0 min
Mus musculus [7] = assay: Hypoglycemic effect in male C57BL/6 mouse assessed as reduction in blood glucose level at 3 mg/kg, po preadministered with compound for 60 mins followed by glucose administration at 0 hrs and measured up to 90 mins by oral glucose tolerance test; assay type: functional, organism-based; conditions: time <= 150.0 min

SMILES	EC50 [1]	EC50 [2]	also measured
COc1ccc(F)c(CCCCCCOc2cccc(C(CC(=O)O)C3CC3)c2)c1 (stereo not drawn)	> 10000 nM	> 10000 nM	–
COc1ccc(OC)c(/C=C(C)/C=C/COc2cccc(C(CC(=O)O)C3CC3)c2)c1 (stereo not drawn)	894 nM	> 10000 nM	–
CCCOc1ccc(OC)cc1/C=C(C)/C=C/COc1cccc(C(CC(=O)O)C2CC2)c1 (stereo not drawn)	364 nM	> 10000 nM	–
Cc1cc(OCCCS(C)(=O)=O)cc(C)c1-c1cccc(COc2ccc3c(c2)OC[C@H]3CC(=O)O)c1	–	–	Emax [3]: 77.8%
COc1cc(/C=C(C)/C=C/COc2cccc(C(CC(=O)O)C3CC3)c2)cc(OCc2ccc(Cl)cc2F)c1 (stereo not drawn)	1360 nM	> 10000 nM	–
COc1ccc(OCCC(C)(C)C)c(/C=C(C)/C=C/COc2cccc([C@H](C3CC3)[C@@](C)(F)C(=O)O)c2)c1	3.23 nM	261 nM	Activity (Mus musculus [4]): Active; Compound Showed Better Effect Compared With Standard Drug(Sco-267); Activity (Mus musculus [5]): Active; Activity (Mus musculus [6]): Dose-dependent-effect
COc1ccc(C(=O)N(CC(C)(C)C)c2cccc(C)n2)c(N2CCC(COc3cc([C@@H](CC(=O)O)C4CC4)ccn3)CC2)c1	1.11 nM	87.9 nM	Activity (Mus musculus [7]): Active
COc1ccc(OCc2ccccc2)c(/C=C(C)/C=C/COc2cccc(C(CC(=O)O)C3CC3)c2)c1 (stereo not drawn)	204 nM	> 10000 nM	–
COc1ccc(F)c(CCCOc2cccc(C(CC(=O)O)C3CC3)c2)c1 (stereo not drawn)	> 10000 nM	> 10000 nM	–
COc1ccc(OCCCC(C)C)c(/C=C(C)/C=C/COc2cccc(C(CC(=O)O)C3CC3)c2)c1 (stereo not drawn)	134 nM	6870 nM	–
COc1ccc(F)c(CCCCOc2cccc(C(CC(=O)O)C3CC3)c2)c1 (stereo not drawn)	6700 nM	> 10000 nM	–

More lines, main results first:

EC50 [1]	EC50 [2]	SMILES	also measured
1770 nM	> 10000 nM	COc1ccc(F)c(/C=C/C=C/COc2cccc(C(CC(=O)O)C3CC3)c2)c1 (stereo not drawn)	–
943 nM	> 10000 nM	COc1cc(/C=C(C)/C=C/COc2cccc(C(CC(=O)O)C3CC3)c2)cc(OCCC(C)(C)C)c1 (stereo not drawn)	–
367 nM	> 10000 nM	COc1ccc(OCC2CC2)c(/C=C(C)/C=C/COc2cccc(C(CC(=O)O)C3CC3)c2)c1 (stereo not drawn)	–
1050 nM	> 10000 nM	COc1ccc(OCCC(C)(C)C)c(/C=C(C)/C=C/COc2cccc([C@H](C3CC3)[C@](C)(F)C(=O)O)c2)c1	–
